# PubChem BioAssay AID1996
# Conditions: buffer; pH 7.4; 200.0 µM
row,Structure (SMILES),solubility kinetic [µg/mL]
1,N#C/C(=C\c1cccnc1)C(=O)Nc1ccc(SC(F)F)cc1,8
2,CC(N=C1NC(C)(C)Cc2ccccc21)C(=O)O (centres undefined),33.2
3,O=C(CCN1C(=O)c2ccccc2C1=O)NCCCn1ccnc1,> 49
4,O=C(CCS(=O)(=O)c1ccccc1)N1CCCc2ccccc21,49.2
5,Cc1nnc(SC(C)C#N)n1-c1ccccc1 (centres undefined),> 36.6
6,Cc1ccc(C(=O)N2CCn3c(C)ccc3C2C)cc1 (centres undefined),23.1
7,CS(=O)(=O)N(CC(=O)N1CCCCCC1)c1cccc([N+](=O)[O-])c1,> 53.3
8,CN(C)CCNC(=S)NC1CCCCC1,32.7
9,NS(=O)(=O)Cc1noc2ccccc12,> 31.8
10,Cc1cc(/C=C(\C#N)C(=O)O)c(C)n1CCC(C)C,> 39.1
11,CC(C)c1ccc(NC(=S)NC2CC3C=CC2C3)cc1 (centres undefined),1.4
12,O=C(/C=C/c1ccc([N+](=O)[O-])s1)N1CCCCC1,> 39.9
13,COC(=O)CSc1nc2ccc(N)cc2s1,> 38.1
14,COc1ccc(C(=O)O/N=C(/C(N)=O)P(=O)(OC(C)C)OC(C)C)cc1,49.1
15,CCOC(=O)c1cccc(NC(=O)N2CCOCC2)c1,> 41.7
16,O=C(COC(=O)c1cccc(F)c1)Nc1cccnc1Cl,41.7
17,O=S1(=O)CC(O)C(NCCO)C1 (centres undefined),> 29.3
18,CN(CC(=O)NCCc1ccccc1)CC(=O)Nc1cccc(F)c1,> 51.5
19,COCc1cc(=O)[nH]c(N2CCN(c3ccccc3OC)CC2)n1,46.3
20,CC1COC(Cn2c3ccccc3c3ccccc32)O1 (centres undefined),12.1
21,O=c1c2[nH]cnc2n(-c2ccc(F)cc2)c(=O)n1Cc1ccccc1,> 50.4
22,Cc1ccc2nc(-c3ccc(-c4ccccn4)s3)cn2c1,3.2
23,COc1cc(NC(=O)CCN2CCOCC2)cc(OC)c1,> 44.2
24,CC(=O)Nc1ccc(S(=O)(=O)NCC2CCCO2)cc1 (centres undefined),> 44.8
25,COc1ccc(C2c3c(nc[nH]c3=O)Oc3nc[nH]c(=O)c32)cc1,> 48.6
26,O=C(C1CCCN(S(=O)(=O)c2ccccc2)C1)N1CCCCC1 (centres undefined),50.4

row,Structure (SMILES),solubility kinetic [µg/mL]
1,Cc1cnc(NC(=O)c2ccc(OCC3CCCO3)cc2)s1 (centres undefined),7.8
2,Cc1c(C(=O)O)sc2nc3n(c(=O)c12)CCC3,> 37.5
3,CCC(NC(=O)C1CCCC1)c1ccc(C)cc1 (centres undefined),34.8
4,Cc1ccc(S(=O)(=O)c2ccc([N+](=O)[O-])cn2)cc1,21
5,Nc1ccc2nc(CCCCCCc3nc4ccc(N)cc4[nH]3)[nH]c2c1,> 52.3
6,COC(=O)c1ccc(NC(=O)C2CCCN(S(C)(=O)=O)C2)cc1 (centres undefined),31.8
7,COc1cccc(C(=O)Nc2c(F)cccc2F)c1,> 39.5
8,Br.C(CCCN1CCCCC1)CCN1CCCCC1,61.8
9,O=C(CN1CCN(Cc2ccccc2)CC1)N/N=C/c1cccnc1,> 50.6
10,Cc1cc(=O)n2c(n1)SCOC2,> 27.6
11,CC(NC(=S)NC(=O)c1ccccc1)c1ccccc1 (centres undefined),6.4
12,Cl.c1ccc2c(c1)CCCC2C1=NCCN1 (centres undefined),> 35.5
13,CN(C)c1ccc(C(=O)NCc2ccc3c(c2)OCO3)cc1,10.2
14,Cl.Fc1cccc(C2NCc3ccccc3-n3cccc32)c1 (centres undefined),30.6
15,O=C(OCCN1CCN(C2=NS(=O)(=O)c3ccccc32)CC1)c1ccccc1F,57.3
16,Cc1cc(=O)[nH]c2sc(C(=O)N3c4ccccc4CC3C)c(N)c12 (centres undefined),> 50.9
17,CCOP(=O)(c1ccccc1)C1(C#N)CC1 (centres undefined),23
18,COc1ccc2cc(S(=O)(=O)N3CCCC3)ccc2c1,3.5
19,COc1cc(OC)c(NC(=O)/C=C/C(=O)O)cc1Cl,> 42.9
20,Cc1cc(C)c(C)c(S(=O)(=O)N2CCCN(C)CC2)c1C,> 46.6
21,CSc1ccccc1C(=O)Nc1ccc2c(c1)OCO2,> 43.1
22,CN1C(=O)c2ccc(NC(=O)c3ccc(Cl)cc3Cl)cc2C1=O,2.1
23,CN1CCN(CC(=O)Nc2ccccc2Oc2ccccc2)CC1,> 48.8
24,CCOC(=O)C1(CC2CC2)CCN(S(=O)(=O)/C=C/c2ccccc2)CC1,3.6
25,CCOC(=O)C1=C(C)NC(=S)NC1c1ccco1 (centres undefined),39.9
26,CC(NCCc1ccc(O)cc1)C(O)c1ccc(O)cc1.Cl (centres undefined),> 48.6

row,Structure (SMILES),solubility kinetic [µg/mL]
1,Cc1cc(C(=O)OCC(=O)Nc2ccc(F)cc2)c(C)n1C1CC1,6.2
2,O=C1C=C(N2CCOCC2)C2(CCCCC2)O1,> 35.6
3,COc1cc(C)c(CN2CCSCC2)cc1C,12.1
4,Cn1c(=O)[nH]c(=O)c2c1nc(N1CCNCC1)n2Cc1ccccc1,45.8
5,C/C(=N\O)c1ccc(Cl)c(Cl)c1,11.9
6,O=C(NCC(O)c1ccccc1)c1ccccc1 (centres undefined),> 36.2
7,Cc1ccc2c(CN3CC(C)CC(C)C3)cc(=O)oc2c1 (centres undefined),4.3
8,COc1cc2c(cc1OC)C(C)N(C(=O)c1c(-c3ccccc3)noc1C)CC2 (centres undefined),9
9,C[C@H](NC(=O)[C@@H]1Cc2ccccc2CN1)C(=O)NC1CCCC1,> 47.3
10,CN(C)[C@@H]1C(=O)C(C(N)=O)=C(O)[C@@]2(O)C(=O)C3=C(O)c4c(O)cccc4[C@@](C)(O)C3[C@H](O)C12.Cl (some centres undefined),70.2
11,CCN(CC)C(=O)c1cc(-c2ccc3c(c2)OCO3)on1,20.8
12,Cc1cc(NC(=O)Nc2ccc(Cl)cc2)no1,1.4
13,Cc1ccc(/C=C/C(=O)Nc2ccc(S(N)(=O)=O)cc2)o1,> 46
14,O=C(CN1CCc2ccccc2C1)Nc1ccccc1Cl,8.7
15,Cl.NC(Cc1ccccc1)C(=O)N1CCCCC1 (centres undefined),> 40.3
16,N#C/C(=C\c1ccncc1)c1nc2ccccc2[nH]1,24.8
17,Nc1c(C(=O)OCC(=O)Nc2ccccc2Br)[nH]c(=O)[nH]c1=O,25.6
18,Nc1nnc(SCC(=O)N2CCCCC2)s1,> 38.8
19,Cc1oc(C(N)=O)nc1-c1ccccc1,> 30.3
20,CN(C)CC[n+]1ccc(C(=O)c2ccccc2)cc1.Cl.[Cl-],> 49.1
21,COC(=O)C(Cc1ccc(O)cc1)NC(=O)c1ccc2c(c1)OCCO2 (centres undefined),> 53.6
22,CSC1=NC2(C)CCCCC2C12C=CC(=O)C=C2 (centres undefined),> 39.2
23,CC(C)CC(NC(N)=O)C(=O)Nc1ccc2c(c1)OCO2 (centres undefined),> 44
24,CCCCn1c(N)c(N(CC)C(=O)c2cccc(F)c2)c(=O)[nH]c1=O,52.1
25,COc1cccc(NC(=S)Nc2ccc(F)cc2)c1,28.7
26,CCOC(=O)CNc1ccc(OC(F)(F)F)cc1,7.2

# Next, values leading:
row,solubility kinetic [µg/mL],Structure (SMILES)
1,36.8,Cc1cccnc1NC(=O)CCCc1c[nH]c2ccccc12
2,37.5,Cc1ccccc1C(=O)Nc1ccc2nc3n(c(=O)c2c1)CCCC3
3,> 42.8,O=Cc1c(NCCN2CCCC2)c2ccccc2[nH]c1=O
4,45.2,CCOc1c(C)cc(S(=O)(=O)NCc2cccnc2)c(C)c1C
5,< 0.3,O=C(Nc1ccc(Cl)cn1)c1ccc(Oc2ccccc2)cc1
6,> 52.1,CC1CCCC(NC(=O)CCNC(=O)c2ccc([N+](=O)[O-])cc2)C1C (centres undefined)
7,> 66.4,CCC1(c2ccc(F)cc2)NC(=O)N(CC(=O)N2CCN(C(=O)c3ccco3)CC2)C1=O (centres undefined)
8,11.7,COc1cccc(C(=O)OCC(=O)N2CCc3ccccc3C2)c1OC
9,> 43,Cc1ccsc1C(=O)NCCc1nnc2ccccn12
10,> 50.9,O=C(Cc1ccccc1)NCC(=O)N/N=C/c1ccc(C(=O)O)cc1
11,47.5,COc1ccccc1N(CC1CO1)S(=O)(=O)c1ccc(C)cc1 (centres undefined)
12,6.9,N#Cc1ccccc1OCC(=O)Nc1ccc(S(=O)(=O)N2CCOCC2)cc1
13,5.6,COc1ccc(CC(=O)O/N=C(\N)Cc2ccc([N+](=O)[O-])cc2)cc1
14,48.4,CC(=O)O.CC(C)CC1NC(C(=O)O)Cc2c1[nH]c1ccccc21 (centres undefined)
15,> 38.4,O=C(N/N=C/c1cccc(O)c1)c1ccccc1O
16,> 40.8,O=C(OCC(=O)N1CCCC1)c1c[nH]c2ccccc12
17,8.4,COC(=O)c1sccc1NC(=O)Nc1ccc(C(C)=O)cc1
18,1.5,CCOC(=O)c1oc2ccccc2c1NC(=O)c1ccco1
19,56.9,N#CCCN(C(=O)COC(=O)CSc1ccc(Cl)cc1)c1ccccc1
20,13.4,Cc1cccc(Nc2ccc([N+](=O)[O-])cn2)c1
21,33.2,Cc1nccn1CCOc1ccccc1Cl

row,solubility kinetic [µg/mL],Structure (SMILES)
1,< 0.8,COc1ccc(/C=C2/SC(=S)NC2=O)cc1OCc1ccccc1
2,29.5,Cc1cc(C(=O)NC2CC2)c2ccccc2n1
3,< 0.7,CCCC(=O)NC(c1ccccc1)c1c(O)ccc2ccccc12 (centres undefined)
4,45.8,CC(C)CC(=O)NC1(C(F)(F)F)NC(=O)N(c2ccccc2)C1=O (centres undefined)
5,> 54.4,CCOC(=O)c1ccc(NS(=O)(=O)c2ccc3oc(=O)[nH]c3c2)cc1
6,3.2,O=C(Cc1ccccc1)Nc1ccc(NC(=O)c2cccnc2)cc1
7,0.3,COc1ccc(NC(=O)c2cc([N+](=O)[O-])ccc2N2CCCCC2)cc1
8,45.6,O=C(COC(=O)CCC(=O)c1cccs1)NCc1ccccc1
9,> 46.5,O=C(CSc1nccc(=O)[nH]1)NCc1ccc(Cl)cc1
10,< 0.4,COC(=O)c1cccc(NC(=O)Nc2ccc(Cl)cc2Cl)c1
11,> 49.1,Cn1c(=O)n(C)c2cc(NC(=O)CSc3ccccc3)ccc21
12,> 51.5,CC1CCCCC12NC(=O)N(CC(=O)NCCc1ccccc1)C2=O (centres undefined)
13,1.8,O=C(Cn1c(=O)oc2ccccc21)Nc1ccc(Cl)cc1
14,> 48.4,COc1ccc(CC(=O)Nc2cccc3ncccc23)cc1OC
15,> 49.9,CCOc1ccc(CN(C)C(=O)CNC(=O)C2CCCCC2)cc1
16,> 48.4,Cc1cccc(NC(=O)CNC(=O)c2ccc3nc[nH]c3c2)c1C
17,> 65.5,CCOc1ccc2ccccc2c1C(=O)N[C@@H]1C(=O)N2[C@@H]1SC(C)(C)[C@@H]2C(=O)[O-].[Na+]
18,17,CCOc1ncccc1C(=O)OCC(=O)c1ccc(C)c(C)c1
19,9.3,O=C1CN(C(=O)COC(=O)c2ccc([N+](=O)[O-])s2)c2ccccc2N1
20,13.1,Cc1ccc(NC(=O)CCCNC(=O)c2ccc(Cl)cc2)c(O)c1
